Earlier results as cited in US20020054924A1, “Novel compositions derived from cranberry and grapefruit and therapeutic uses therefor” (priority 2000, published 2002).

Tested on: cholesterol
Settings: chickens

tocotrienol [Extract T3]
hypocholesterolemic effect compared with Lovastatin: twice as effective as Lovastatin™
